Data from patent publication US8143246B2, “1-(4-(pyridin-2-yl)benzyl)imidazolidine-2,4-dione derivatives” (MSD OSS B.V., priority 2008, dated 2012).

How the values were obtained:
[1] = tested on: mechanical hyperalgesia induced by complete Freund's adjuvant in rats; experiment: Mechanical hyperalgesia in the rat (CFA inflammatory pain); type: in vivo; conditions: for % Attenuation of hyperalgesia (peak effect): p.o., male Wistar rats, Randall-Sellito, 24 h after CFA, mean ± s.e.m.
Protocol: Mechanical Hyperalgesia in the Rat
In this rat model of inflammatory pain, inflammation is induced by subcutaneous injection of complete Freund's adjuvant (CFA) into the hind paw. The associated mechanical hyperalgesia is quantified by measuring the reduction in paw withdrawal threshold (PWT) to mechanical compression the paw.
Experiments were conducted using male Wistar rats weighing (141-175 g). In brief, the rats' paw withdrawal threshold (PWT) to a mechanical compression of the hind paw was measured (baseline reading) using a Randall-Sellito apparatus (Ugo Basile). A cut-off of 20 g was employed to minimise tissue damage to the paw. The animals were then lightly anaesthetised with isoflurane (1-3%) and complete Freund's adjuvant (0.1 ml per paw) was injected subcutaneously (s.c.) into the plantar surface of the left hind paw. The animals were then returned to their home cage and left for the inflammation to develop. Twenty four hours after CFA injection, PWT's were re-measured (0 min) and immediately after this reading, rats were dosed orally with either vehicle or test compound (4.4-43.8 μmol/kg p.o. of compound 12). Readings were then made at 3 h post administration. Data were plotted as mean±s.e.m. and compared between groups using the Kruskal-Wallis one-way analysis of variance, a non-parametric statistical test. […] The percent attenuation of mechanical hyperalgesia is calculated as follows: […]

[2] = tested on: mechanical allodynia induced by spinal nerve ligation in rats; experiment: Rat (Chung) model of neuropathic pain; type: in vivo; conditions: for Withdrawal threshold (g) at peak effect: p.o., male Wistar rats, von Frey, mean ± s.e.m.
Protocol: The Rat (Chung) Model of Neuropathic Pain
In this model, mechanical allodynia is induced by tight ligation of the left L5 spinal nerve.
Male Wistar rats (228-301 g body weight at time of surgery) were employed in the study. Rats were placed on an elevated (˜40 cm) mesh floor in perspex boxes and the rats' withdrawal threshold to a mechanical stimulus (calibrated von Frey filaments) was measured using filaments of increasing force (2.6-167 mN) as described above. The von Frey filaments were applied to the plantar surface of the paw and threshold response determined using the up and down method. A positive response was noted if the paw was sharply withdrawn. A cut-off of 15 g was selected as the upper limit for testing. Following baseline measurements each animal was anaesthetised and the L5 spinal nerve tightly ligated. The animals were allowed to recover from the surgery for a period of at least three days. On the day of drug administration the paw withdrawal thresholds were re-measured (0 min). Immediately after this reading, the rats were dosed orally with vehicle or test compound and readings measured at various time points after compound administration.
Data were expressed as mean±s.e.m. Statistical analysis was performed using the Kruskal-Wallis one-way analysis of variance, a non-parametric statistical test. Each of the treatment groups were then compared against the vehicle group, using the non-parametric Dunn's test.

## CC(C)CN1C(=O)CN(Cc2ccc(-c3cccc(CN4CCCCC4)n3)cc2)C1=O [Example 12, 3-Isobutyl-1-(4-(6-(piperidin-1-ylmethyl)pyridin-2-yl)benzyl)imidazolidine-2,4-dione]
[1]; oral, 4.4-43.8 μmol/kg
  Effect on mechanical hyperalgesia induced by CFA: reversed mechanical hyperalgesia induced by CFA in a dose-dependent fashion
[1]; oral, CFA-induced mechanical hyperalgesia
  MED: 13.2 µmol/kg
[1]; 4.4 μmol/kg
  % Attenuation of hyperalgesia (peak effect): 58.64 ± 27.32%
[1]; 13.2 μmol/kg, p ≦ 0.01 vs vehicle
  % Attenuation of hyperalgesia (peak effect): 69.70 ± 12.88 %
[1]; 43.8 μmol/kg, p ≦ 0.001 vs vehicle
  % Attenuation of hyperalgesia (peak effect): 116.74 ± 23.78 %
[2]; oral, 120 and 180 min post drug administration
  Effect on mechanical allodynia: attenuated mechanical allodynia in a dose-dependent fashion
[2]; oral, mechanical allodynia
  Minimum effective dose (MED): 43.8 µmol/kg
[2]; 4.4 μmol/kg
  Withdrawal threshold (g) at peak effect: 2.40 ± 0.64 g
[2]; 13.2 μmol/kg
  Withdrawal threshold (g) at peak effect: 4.32 ± 1.63 g
[2]; 43.8 μmol/kg, p ≦ 0.01 vs vehicle
  Withdrawal threshold (g) at peak effect: 8.97 ± 2.21 g
